Laboratory results published in the supplement of paper PMC10307832.

What was measured:
Test in all cases: relative viability (nuclei count vs DMSO), 5 days (fraction); higher = more cells survive
Tipifarnib = compound: Cn1cncc1[C@@](N)(c1ccc(Cl)cc1)c1ccc2c(c1)c(-c1cccc(Cl)c1)cc(=O)n2C [Tipifarnib]
Method in brief: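 On vehicle-anchored 1536-well plates, lung cancer cell lines held overnight at 37 °C were pinned with five library-drug doses (not always all listed) spaced by √10. With no medium change over 5 days, they were then fixed, permeabilised and Hoechst-stained in one step and imaged at 4×. MetaXpress counted nuclei, and viability is the median across plates of treated-well over vehicle-well nuclei. Acceptance needed control CV below 25% and at least one doubling.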

Tipifarnib + Tozasertib = compound: Cn1cncc1[C@@](N)(c1ccc(Cl)cc1)c1ccc2c(c1)c(-c1cccc(Cl)c1)cc(=O)n2C [Tipifarnib] + Cc1cc(Nc2cc(N3CCN(C)CC3)nc(Sc3ccc(NC(=O)C4CC4)cc3)n2)n[nH]1 [Tozasertib] (partner 0.1 µM)
Method in brief: (§1)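 Cells from lung cancer lines were seeded into 1536-well plates and, one day later, dosed by pin tool. Treatments were either a single drug or a fixed dose of an anchor drug with five library-drug doses (not always all listed) in √10 steps. After 5 days, nuclei were stained in a one-step fixation (final 0.05% Triton X-100, 1% formaldehyde, 1 ug/ml Hoechst) and counted on 4× images, and relative viability is the treated-to-vehicle nuclei ratio, as the median of duplicate plates.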

Tipifarnib + Trametinib = compound: Cn1cncc1[C@@](N)(c1ccc(Cl)cc1)c1ccc2c(c1)c(-c1cccc(Cl)c1)cc(=O)n2C [Tipifarnib] + CC(=O)Nc1cccc(-n2c(=O)n(C3CC3)c(=O)c3c(Nc4ccc(I)cc4F)n(C)c(=O)c(C)c32)c1 [Trametinib] (partner 0.02 µM)
Method in brief: as §1

Tipifarnib + AZD7762 = compound: Cn1cncc1[C@@](N)(c1ccc(Cl)cc1)c1ccc2c(c1)c(-c1cccc(Cl)c1)cc(=O)n2C [Tipifarnib] + NC(=O)Nc1cc(-c2cccc(F)c2)sc1C(=O)N[C@H]1CCCNC1 [AZD7762] (partner 0.2 µM)
Method in brief: as §1

Row | Cell Line | relative viability (Tipifarnib; 0.01 µM) | relative viability (Tipifarnib; 0.03162 µM) | relative viability (Tipifarnib; 0.1 µM) | relative viability (Tipifarnib; 0.3162 µM) | relative viability (Tipifarnib; 1 µM) | relative viability (Tipifarnib + Tozasertib; first compound 0.01 µM) | relative viability (Tipifarnib + Tozasertib; first compound 0.03162 µM) | relative viability (Tipifarnib + Tozasertib; first compound 0.1 µM) | relative viability (Tipifarnib + Tozasertib; first compound 0.3162 µM) | relative viability (Tipifarnib + Tozasertib; first compound 1 µM) | relative viability (Tipifarnib + Trametinib; first compound 0.01 µM) | relative viability (Tipifarnib + Trametinib; first compound 0.03162 µM) | relative viability (Tipifarnib + Trametinib; first compound 0.1 µM) | relative viability (Tipifarnib + Trametinib; first compound 0.3162 µM) | relative viability (Tipifarnib + Trametinib; first compound 1 µM) | relative viability (Tipifarnib + AZD7762; first compound 0.01 µM) | relative viability (Tipifarnib + AZD7762; first compound 0.03162 µM) | relative viability (Tipifarnib + AZD7762; first compound 0.1 µM) | relative viability (Tipifarnib + AZD7762; first compound 0.3162 µM) | relative viability (Tipifarnib + AZD7762; first compound 1 µM)
1 | H3255 | 1.05 | 0.991 | 0.796 | 0.642 | 0.617 | 0.72 | 0.674 | 0.528 | 0.476 | 0.389 | 0.674 | 0.576 | 0.542 | 0.458 | 0.471 | 1.04 | 0.918 | 0.736 | 0.559 | 0.514
2 | EPLC-272H | 0.995 | 0.761 | 0.818 | 0.618 | 0.238 | 0.366 | 0.266 | 0.224 | 0.249 | 0.243 | 0.336 | 0.274 | 0.246 | 0.303 | 0.234 | 0.313 | 0.263 | 0.245 | 0.292 | 0.118
3 | PC-3 [JPC-3] | 0.981 | 0.977 | 0.979 | 0.754 | 0.576 | 0.827 | 0.827 | 0.722 | 0.701 | 0.535 | 0.726 | 0.61 | 0.531 | 0.494 | 0.478 | 0.805 | 0.714 | 0.532 | 0.519 | 0.457
4 | NCI-H1793 | 0.981 | 0.802 | 0.869 | 0.448 | 0.462 | 0.286 | 0.284 | 0.248 | 0.247 | 0.265 | 0.426 | 0.37 | 0.342 | 0.381 | 0.339 | 0.605 | 0.426 | 0.379 | 0.302 | 0.2
5 | EKVX | 1.07 | 0.954 | 0.901 | 0.807 | 0.531 | 0.447 | 0.331 | 0.397 | 0.348 | 0.297 | 0.261 | 0.35 | 0.244 | 0.298 | 0.264 | 0.795 | 0.756 | 0.607 | 0.537 | 0.337
6 | ChaGo-K-1 | 0.993 | 1.02 | 1.08 | 0.928 | 0.547 | 0.226 | 0.22 | 0.213 | 0.198 | 0.175 | 0.96 | 0.942 | 0.868 | 0.853 | 0.674 | 0.904 | 0.936 | 0.931 | 0.745 | 0.411
7 | NCI-H23 | 1.09 | 0.767 | 0.765 | 0.539 | 0.337 | 0.346 | 0.371 | 0.384 | 0.253 | 0.259 | 0.368 | 0.493 | 0.398 | 0.292 | 0.204 | 0.227 | 0.253 | 0.229 | 0.236 | 0.199
8 | EMC-BAC-2 | 0.997 | 0.936 | 0.82 | 0.809 | 0.529 | 0.3 | 0.281 | 0.272 | 0.262 | 0.271 | 0.81 | 0.754 | 0.655 | 0.606 | 0.614 | 0.981 | 0.952 | 0.944 | 0.822 | 0.536
9 | LOU-NH91 | 0.912 | 0.841 | 0.908 | 0.771 | 0.558 | 0.61 | 0.524 | 0.329 | 0.464 | 0.441 | 0.825 | 0.747 | 0.73 | 0.69 | 0.723 | 0.715 | 0.685 | 0.636 | 0.625 | 0.503
10 | LU99A | 1 | 0.836 | 0.643 | 0.556 | 0.394 | 0.261 | 0.249 | 0.223 | 0.232 | 0.223 | 0.394 | 0.431 | 0.312 | 0.25 | 0.209 | 0.277 | 0.272 | 0.255 | 0.182 | 0.224
11 | NCI-H1395 | 0.808 | 0.823 | 0.659 | 0.606 | 0.492 | 0.659 | 0.681 | 0.567 | 0.498 | 0.556 | 1.25 | 0.966 | 0.946 | 0.862 | 0.967 | 0.363 | 0.367 | 0.398 | 0.375 | 0.329
12 | NCI-H460 | 0.989 | 0.963 | 0.727 | 0.538 | 0.149 | 0.625 | 0.51 | 0.216 | 0.15 | 0.0888 | 0.142 | 0.0861 | 0.0817 | 0.0529 | 0.0386 | 0.575 | 0.618 | 0.282 | 0.237 | 0.118
13 | 201T | 0.999 | 1.02 | 0.932 | 0.893 | 0.669 | 1.02 | 0.945 | 0.864 | 0.705 | 0.767 | 0.75 | 0.734 | 0.722 | 0.656 | 0.649 | 0.679 | 0.628 | 0.573 | 0.546 | 0.449
14 | NCI-H1944 | 0.886 | 0.65 | 0.514 | 0.437 | 0.429 | 0.257 | 0.256 | 0.236 | 0.25 | 0.236 | 0.438 | 0.371 | 0.348 | 0.297 | 0.302 | 0.515 | 0.435 | 0.295 | 0.299 | 0.306
15 | NCI-H2405 | 1.03 | 0.984 | 0.928 | 0.954 | 0.735 | 0.708 | 0.666 | 0.626 | 0.544 | 0.532 | 0.7 | 0.518 | 0.487 | 0.489 | 0.582 | 0.759 | 0.758 | 0.688 | 0.523 | 0.589
16 | NCI-H1703 | 0.853 | 0.75 | 0.287 | 0.33 | 0.344 |  |  |  |  |  |  |  |  |  |  | 0.139 | 0.111 | 0.125 | 0.0872 | 0.14
